{
  "source": "patent US5418150A",
  "about": "“Method of cleaving DNA” (priority 1993, dated 1995)",
  "key": {"[1]": {"target": "T1, Nae I (Lentzea aerocolonigenes, UniProt P50187)", "T1 sequence (P50187 1-317)": "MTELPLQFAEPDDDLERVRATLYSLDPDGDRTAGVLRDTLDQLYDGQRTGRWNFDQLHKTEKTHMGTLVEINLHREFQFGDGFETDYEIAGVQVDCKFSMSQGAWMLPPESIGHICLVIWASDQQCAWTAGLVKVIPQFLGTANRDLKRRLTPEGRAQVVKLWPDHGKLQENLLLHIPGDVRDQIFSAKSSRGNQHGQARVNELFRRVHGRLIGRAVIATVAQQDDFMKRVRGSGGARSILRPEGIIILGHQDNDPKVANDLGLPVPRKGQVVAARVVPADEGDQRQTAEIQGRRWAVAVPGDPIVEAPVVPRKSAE", "test": "Activation of Nae I cleavage of M13mp18 RFI DNA", "type": "biochemical, Nocardia aerocolonigenes", "set-up": "key to Activation of Nae I cleavage of M13mp18 RF1 DNA: ++++: full activation; ++: about 50% activation; -: no activation"}, "[2]": {"target": "T1, Nae I", "settings": "2 mM spermidine, SV40 DNA 2.9 nM, 1.1 units Nae I, 1 hour 37° C."}, "[3]": {"target": "T1, Nae I", "test": "biochemical", "settings": "1 h, read-out: Increase in Nae I cleavage of SV40 slow site"}},
  "note": "Like-named read-outs stand apart in the source and are kept apart here.",
  "data": [
    {"compound": "GCCGGCGGTGTGGGCAGCTGGTG (chemistry not given here) [Oligonucleotide duplex 6]", "values": [
      {"measurement": "Activation of Nae I cleavage of M13mp18 RF1 DNA", "setting": "[1]", "result": "-"}
    ]},
    {"compound": "GCCGGC (chemistry not given here) [Oligonucleotide duplex 7]", "values": [
      {"measurement": "Activation of Nae I cleavage of M13mp18 RF1 DNA", "setting": "[1]; compared to cleavage caused by an equal concentration of pBR322 Nae I sites", "result": "-"}
    ]},
    {"compound": "GGGCGCCGGCGGTG (chemistry not given here) [Oligonucleotide duplex 3]", "values": [
      {"measurement": "Activation of Nae I cleavage of M13mp18 RF1 DNA", "setting": "[1]", "result": "++ (key: ++++: full activation; ++: about 50% activation; -: no activation)"}
    ]},
    {"compound": "NCCCCNCCCN", "note": "[spermidine]", "values": [
      {"measurement": "Spermidine concentration needed to mimic the effect of 1 mM at low salt", "setting": "[1]; 1 mM Mg2+ and 50 mM Na+", "result": 6, "unit": "mM"},
      {"measurement": "Spermidine concentration at which the switch occurs (inhibition in presence of activating DNA)", "setting": "[1]; 50 mM NaCl and 10 mM MgCl2", "result": 8, "unit": "mM"},
      {"measurement": "Spermidine concentration at which the switch occurs (inhibition in presence of activating DNA)", "setting": "[1]; low salt concentration", "result": 1, "unit": "mM"},
      {"measurement": "Effect on cleavage of resistant Nae I sites such as in M13mp18 DNA", "setting": "[1]; spermidine at 1 mM, low salt", "result": "greatly activated"},
      {"measurement": "Spermidine concentration that switches on Nae I cleavage of resistant sites", "setting": "[1]; spermidine by itself, low salt conditions", "result": "about 1 mM"},
      {"measurement": "Nae I cleavage of SV40 slow site", "setting": "[2]", "result": 17, "unit": "%"},
      {"measurement": "fold induction at 2000 µM", "setting": "[3]", "result": 40}
    ]},
    {"compound": "TGGTGGGCGCCGGCGGTGTGGGCA (TTGGTGGGCGCCGGCGGTGTGGGCA; chemistry not given here) [Oligonucleotide duplex 2]", "values": [
      {"measurement": "Activation of Nae I cleavage of M13mp18 RF1 DNA", "setting": "[1]", "result": "++++"}
    ]},
    {"compound": "CTGGTGGTGGGCGCCGGC (chemistry not given here) [Oligonucleotide duplex 5]", "values": [
      {"measurement": "Activation of Nae I cleavage of M13mp18 RF1 DNA", "setting": "[1]", "result": "-"}
    ]},
    {"compound": "GCGCCGGCGG (chemistry not given here) [Oligonucleotide duplex 4]", "values": [
      {"measurement": "Activation of Nae I cleavage of M13mp18 RF1 DNA", "setting": "[1]", "result": "-"}
    ]},
    {"compound": "GGGTGCCGGCAGGG (chemistry not given here) [SEQ ID NO: 8]", "values": [
      {"measurement": "Activation as activating sequence for Nae I", "setting": "[1]; procedures of Example 1", "result": 100, "unit": "%"}
    ]}
  ]
}
